Results reported in ChEMBL document CHEMBL5329153, “Is structural hybridization invoking new dimensions for antimalarial drug discovery research?” (RSC Med Chem, 2023).

Experiments:
Plasmodium falciparum [1] = assay: Antimalarial activity against Plasmodium falciparum 3D7 assessed as parasitic growth inhibition measured after 42 hrs by [3H]hypoxanthine incorporation assay; assay type: functional, organism-based
Plasmodium falciparum [2] = assay: Antimalarial activity against Chloroquine resistant Plasmodium falciparum Dd2 assessed as parasitic growth inhibition measured after 3 days by ELISA assay; assay type: functional, organism-based; conditions: Dd2, 72 h
Plasmodium falciparum [3] = assay: Antimalarial activity against Chloroquine sensitive Plasmodium falciparum 3D7 assessed as parasitic growth inhibition measured after 3 days by ELISA assay; assay type: functional, organism-based; conditions: 3D7, 72 h
Plasmodium falciparum [4] = assay: Antimalarial activity against Chloroquine sensitive Plasmodium falciparum RKL-9 assessed as parasitic growth inhibition measured after 36 to 40 hrs by Giemsa staining based assay; assay type: functional, organism-based
Plasmodium falciparum [5] = assay: Antimalarial activity against Chloroquine sensitive Plasmodium falciparum RKL-2 assessed as parasitic growth inhibition measured after 36 to 40 hrs by Giemsa staining based assay; assay type: functional, organism-based
Plasmodium falciparum [6] = assay: Antimalarial activity against Chloroquine-pyrimethamine resistant Plasmodium falciparum W2 assessed as parasitic growth inhibition measured after 48 hrs; assay type: functional, organism-based; conditions: W2, 48 h
Plasmodium falciparum [7] = assay: Antimalarial activity against Chloroquine-pyrimethamine sensitive Plasmodium falciparum D6 assessed as parasitic growth inhibition measured after 48 hrs; assay type: functional, organism-based; conditions: D6, 48 h
Hemozoin = assay: Inhibition of beta-hematin formation
Plasmodium falciparum [8] = assay: Antimalarial activity against mefloquine resistant Plasmodium falciparum K1 assessed as parasitic growth inhibition measured after 48 hrs; assay type: functional, organism-based; conditions: K1, 48 h
Plasmodium falciparum [9] = assay: Antimalarial activity against chloroquine resistant Plasmodium falciparum F32 assessed as parasitic growth inhibition measured after 48 hrs; assay type: functional, organism-based; conditions: F32, 48 h
Plasmodium falciparum [10] = assay: Antimalarial activity against mefloquine resistant Plasmodium falciparum Thai assessed as parasitic growth inhibition measured after 48 hrs; assay type: functional, organism-based
Plasmodium falciparum [11] = assay: Antimalarial activity against chloroquine resistant Plasmodium falciparum Thai assessed as parasitic growth inhibition measured after 48 hrs; assay type: functional, organism-based
Plasmodium falciparum [12] = assay: Antimalarial activity against chloroquine resistant Plasmodium falciparum FcB1 assessed as parasitic growth inhibition measured after 48 hrs; assay type: functional, organism-based; conditions: FcB1, 48 h
Plasmodium falciparum [13] = assay: Antimalarial activity against mefloquine resistant Plasmodium falciparum F32 assessed as parasitic growth inhibition measured after 48 hrs; assay type: functional, organism-based; conditions: F32, 48 h
Plasmodium falciparum [14] = assay: Antimalarial activity against mefloquine resistant Plasmodium falciparum FcB1 assessed as parasitic growth inhibition measured after 48 hrs; assay type: functional, organism-based; conditions: FcB1, 48 h
Plasmodium falciparum [15] = assay: Antimalarial activity against chloroquine resistant Plasmodium falciparum K1 assessed as parasitic growth inhibition measured after 48 hrs; assay type: functional, organism-based; conditions: K1, 48 h
Plasmodium falciparum [16] = assay: Antimalarial activity against chloroquine sensitive Plasmodium falciparum 3D7 assessed as parasitic growth inhibition by SYBR Green I dye based assay; assay type: functional, organism-based
Plasmodium falciparum [17] = assay: Antimalarial activity against Chloroquine sensitive Plasmodium falciparum 3D7 assessed as parasitic growth inhibition measured after 24 hrs; assay type: functional, organism-based; conditions: 3D7, 24 h
Plasmodium falciparum [18] = assay: Antimalarial activity against Chloroquine resistant Plasmodium falciparum W2 assessed as parasitic growth inhibition; assay type: functional, organism-based
Plasmodium falciparum [19] = assay: Antimalarial activity against Chloroquine sensitive Plasmodium falciparum D6 assessed as parasitic growth inhibition; assay type: functional, organism-based
Plasmodium falciparum [20] = assay: Potency index, ratio of chloroquine IC50 to test compound IC50 for antimalarial activity against Chloroquine resistant Plasmodium falciparum W2 assessed as parasitic growth inhibition; assay type: functional
Plasmodium falciparum [21] = assay: Potency index, ratio of chloroquine IC50 to test compound IC50 for antimalarial activity against Chloroquine sensitive Plasmodium falciparum D6 assessed as parasitic growth inhibition; assay type: functional
Plasmodium falciparum [22] = assay: Antimalarial activity against Plasmodium falciparum 3D7 assessed as parasitic growth inhibition measured after 72 hrs by SYBR Green dye based assay; assay type: functional, organism-based; conditions: 3D7, 72 h
Plasmodium falciparum [23] = assay: Antimalarial activity against Plasmodium falciparum male gametocytes assessed as parasitic growth inhibition; assay type: functional, organism-based
Plasmodium falciparum [24] = assay: Potency index, ratio of mefloquine IC50 to test compound IC50 for antimalarial activity against Plasmodium falciparum female gametocytes assessed as parasitic growth inhibition; assay type: functional
Plasmodium falciparum [25] = assay: Potency index, ratio of artesunate IC50 to test compound IC50 for antimalarial activity against Plasmodium falciparum female gametocytes assessed as parasitic growth inhibition; assay type: functional
Plasmodium falciparum [26] = assay: Antimalarial activity against Plasmodium falciparum female gametocytes assessed as parasitic growth inhibition; assay type: functional, organism-based
Plasmodium falciparum [27] = assay: Antimalarial activity against Plasmodium falciparum male gametocytes assessed as parasitic growth inhibition by exflagellation assay; assay type: functional, organism-based
Plasmodium falciparum [28] = assay: Antimalarial activity against Plasmodium falciparum 3D7 assessed as parasitic growth inhibition; assay type: functional, organism-based
Plasmodium falciparum [29] = assay: Antimalarial activity against Plasmodium falciparum Dd2 assessed as parasitic growth inhibition; assay type: functional, organism-based
Plasmodium falciparum [30] = assay: Antimalarial activity against Plasmodium falciparum K1 assessed as parasitic growth inhibition; assay type: functional, organism-based

In the case of `COc1ccc2cc3[n+](cc2c1OCc1cn(-c2ccc(S(=O)(=O)Nc4ccc(F)cc4)cc2)nn1)CCc1cc2c(cc1-3)OCO2.[Cl-]`, the IC50 (Plasmodium falciparum [1]) is reported as 0.15 µg/mL.

Compound `COc1ccc2cc3[n+](cc2c1OCc1cn(-c2ccc(S(=O)(=O)Nc4ccc(Cl)cc4)cc2)nn1)CCc1cc2c(cc1-3)OCO2.[Cl-]` has an IC50 (Plasmodium falciparum [1]) of 0.1 µg/mL.

Compound `COc1cc(NC(C)CCCNC(=O)CCCC(=O)NO)c2ncccc2c1` (stereo not drawn) has an IC50 (Plasmodium falciparum [2]) of 1900 nM and an IC50 (Plasmodium falciparum [3]) of 400 nM.

`O=C1C(O)=C(NCCNc2ccnc3cc(Cl)ccc23)C(=O)c2ccccc21` was tested, and the IC50 (Plasmodium falciparum [4]) was 684 nM and the IC50 (Plasmodium falciparum [5]) was 391 nM.

`N=C(N=C(N)N)SCCNc1ccnc2cc(C(F)(F)F)ccc12` gave an IC50 (Plasmodium falciparum [6]) of 2.95 µM and an IC50 (Plasmodium falciparum [7]) of 1860 nM.

`COc1cc2c(cc1OC)CC(Nc1ccnc3cc(Cl)ccc13)C2` gave an IC50 (Hemozoin) of 390 nM.

`N=C(N=C(N)N)SCCCCNc1ccnc2cc(C(F)(F)F)ccc12` was tested, and the IC50 (Plasmodium falciparum [6]) was 6.06 µM and the IC50 (Plasmodium falciparum [7]) was 2800 nM.

Work on `O=C1C(O)=C(N2CCN(c3ccnc4cc(Cl)ccc34)CC2)C(=O)c2ccccc21` yielded an IC50 (Plasmodium falciparum [4]) of 1090 nM and an IC50 (Plasmodium falciparum [5]) of 391 nM.

Work on `C[C@H]1C[C@@H]2C[C@@H]3CC[C@H]4OC(C(F)(F)F)=C(COCCOC(=O)CCC(=O)OC(c5cc(C(F)(F)F)nc6c(C(F)(F)F)cccc56)C5CCCCN5)[C@H](C1)[C@]24OO3` (stereo partly drawn) yielded an IC50 (Plasmodium falciparum [8]) of 2.4 nM, an IC50 (Plasmodium falciparum [9]) of 2.4 nM and an IC50 (Plasmodium falciparum [10]) of 2.4 nM. For the same compound, the IC50 (Plasmodium falciparum [11]) was 2.4 nM, the IC50 (Plasmodium falciparum [12]) was 2.4 nM and the IC50 (Plasmodium falciparum [13]) was 2.4 nM. It also gave an IC50 (Plasmodium falciparum [14]) of 2.4 nM and an IC50 (Plasmodium falciparum [15]) of 2.4 nM.

For `N=C(N=C(N)N)SCCCNc1ccnc2cc(Cl)ccc12`, the IC50 (Plasmodium falciparum [6]) was 2.31 µM and the IC50 (Plasmodium falciparum [7]) was 1560 nM.

For `COc1cc(NC(C)CCCNC(=O)c2ccc(C(=O)NO)cc2)c2ncccc2c1` (stereo not drawn), the IC50 (Plasmodium falciparum [2]) was 1200 nM and the IC50 (Plasmodium falciparum [3]) was 600 nM.

`N=C(N=C(N)N)SCCCNc1ccnc2cc(C(F)(F)F)ccc12` gave an IC50 (Plasmodium falciparum [6]) of 3.21 µM and an IC50 (Plasmodium falciparum [7]) of 2850 nM.

`CCCN1C(=O)c2ccc3c4c(ccc(c24)C1=O)C(=O)C(CNc1c2ccc(Cl)cc2nc2ccc(OC)cc12)C3=O` was tested, and the IC50 (Plasmodium falciparum [16]) was 3.65 nM.

Work on `Cc1ccc(-c2nn(-c3nc4ccccc4s3)cc2/C=N\c2ccc(Cl)cc2)cc1` yielded an EC50 (Plasmodium falciparum [17]) of 1980 nM.

`Cc1cc(NCCCCNc2ccnc3cc(Cl)ccc23)nc(Nc2ccc(C(=O)N3CCOCC3)cc2)n1` was tested, and the IC50 (Plasmodium falciparum [18]) was 33 nM, the IC50 (Plasmodium falciparum [19]) was 32 nM and the “Ratio IC50” value (Plasmodium falciparum [20]) was 11. The “Ratio IC50” value (Plasmodium falciparum [21]) was 11.

`CCCCNc1c2ccc(Cl)cc2nc2ccc(OC)cc12` showed an IC50 (Plasmodium falciparum [16]) of 26.4 nM.

Work on `COc1ccc2nc3cc(Cl)ccc3c(NCC3C(=O)c4ccc5c6c(ccc(c46)C3=O)C(=O)N(CCn3ccnc3)C5=O)c2c1` yielded an IC50 (Plasmodium falciparum [16]) of 8.44 nM.

`CC1=C(CN2CCCCC2C(O)c2cc(C(F)(F)F)nc3c(C(F)(F)F)cccc23)[C@@H]2C[C@@H](C)C[C@@H]3C[C@]4(C)CC[C@@H](O1)[C@@]32OO4` (stereo partly drawn) showed an IC50 (Plasmodium falciparum [8]) of 2.4 nM, an IC50 (Plasmodium falciparum [9]) of 2.4 nM and an IC50 (Plasmodium falciparum [10]) of 2.4 nM. For the same compound, the IC50 (Plasmodium falciparum [11]) was 2.4 nM, the IC50 (Plasmodium falciparum [12]) was 2.4 nM and the IC50 (Plasmodium falciparum [13]) was 2.4 nM. It also gave an IC50 (Plasmodium falciparum [14]) of 2.4 nM and an IC50 (Plasmodium falciparum [15]) of 2.4 nM.

With `N=C(N=C(N)N)SCCNc1ccnc2cc(Cl)ccc12` the IC50 (Plasmodium falciparum [6]) was 3.71 µM and the IC50 (Plasmodium falciparum [7]) was 2250 nM.

`COc1ccc(OC)c2c1CC(Nc1ccnc3cc(Cl)ccc13)C2` gave an IC50 (Hemozoin) of 480 nM.

Work on `C[C@H]1[C@H](OC(=O)CCC(=O)Oc2ccc(Nc3ncnc4ccccc34)cc2)O[C@@H]2O[C@@]3(C)CC[C@H]4[C@H](C)CC[C@@H]1[C@@]24OO3` yielded an EC50 (Plasmodium falciparum [22]) of 3.8 nM.

`C[C@H]1[C@H](OC(=O)CCC(=O)Nc2cccc3ncnc(Nc4ccc(Cl)c(Cl)c4)c23)O[C@@H]2O[C@@]3(C)CC[C@H]4[C@H](C)CC[C@@H]1[C@@]24OO3` showed an EC50 (Plasmodium falciparum [22]) of 1.4 nM.

In the case of `CCCCN1C(=O)c2ccc3c4c(ccc(c24)C1=O)C(=O)C(CCNc1c2ccc(Cl)cc2nc2ccc(OC)cc12)C3=O`, the IC50 (Plasmodium falciparum [16]) is reported as 3.89 nM.

`COc1ccc2nc3cc(Cl)ccc3c(NCC3C(=O)c4ccc5c6c(ccc(c46)C3=O)C(=O)N(CN(C)C)C5=O)c2c1` showed an IC50 (Plasmodium falciparum [16]) of 4.33 nM.

`Cc1ccc(-c2nn(-c3nc4ccccc4s3)cc2/C=N\c2cccc(Cl)c2)cc1` gave an EC50 (Plasmodium falciparum [17]) of 1950 nM.

In the case of `C[C@H]1[C@@H](OC(=O)CCC(=O)O)O[C@@H]2C[C@@]3(C)CC[C@H]4[C@H](C)CC[C@@H]1[C@@]24OO3.Cc1cccc2c(C(O)C3CCCCN3)cc(C(F)(F)F)nc12` (racemic), the IC50 (Plasmodium falciparum [23]) is reported as 4.6 µM, the “Ratio IC50” value (Plasmodium falciparum [24]) is reported as 280 and the “Ratio IC50” value (Plasmodium falciparum [25]) is reported as 15. For the same compound, the IC50 (Plasmodium falciparum [26]) was 20 nM and the IC50 (Plasmodium falciparum [27]) was 17 nM.

In the case of `C[C@@H]1CC[C@H]2[C@@H](C)C(=O)O[C@@H]3O[C@@]4(C)CC[C@@H]1[C@]32OO4` [ARTEMISININ], the IC50 (Plasmodium falciparum [23]) is reported as 12.7 µM, the IC50 (Plasmodium falciparum [26]) is reported as 300 nM and the IC50 (Plasmodium falciparum [27]) is reported as 120 nM.

`CCN(CC)CCCC(C)Nc1ccnc2cc(Cl)ccc12` (stereo not drawn) [CHLOROQUINE] gave an EC50 (Plasmodium falciparum [28]) of 12.7 nM, an EC50 (Plasmodium falciparum [22]) of 9.8 nM and an IC50 (Hemozoin) of 180 nM. It also gave an EC50 (Plasmodium falciparum [29]) of 165 nM and an EC50 (Plasmodium falciparum [30]) of 303 nM.

For `OC(c1cc(C(F)(F)F)nc2c(C(F)(F)F)cccc12)C1CCCCN1` (stereo not drawn) [MEFLOQUINE], the IC50 (Plasmodium falciparum [23]) was 16.5 µM and the IC50 (Plasmodium falciparum [26]) was 5600 nM.

`COc1cc(NC(C)CCCN)c2ncccc2c1` (stereo not drawn) [PRIMAQUINE] showed an IC50 (Plasmodium falciparum [2]) of 4300 nM and an IC50 (Plasmodium falciparum [3]) of 1500 nM.
